Assay results reported in ChEMBL document CHEMBL3832056, “DailyMed|setid=5ad109ec-1fff-498c-bc91-e2e5481122bc | RAMIPRIL- ramipril capsule|Lake Erie Medical DBA Quality Care Products LLC”.

Assays:
Homo sapiens [1] = assay: Pharmacokinetic parameters for Ramipril, and its active metabolite Ramiprilat evaluated after oral administration of Ramipril.; type: ADME, organism-based; settings: in vivo, dosed compound id 51, dosed compound name RAMIPRIL, regimen Single dose; for F: at 5 mg
Homo sapiens [2] = assay: Half-life of Ramiprilat, active metabolite of Ramipril, evaluated after oral administration of multiple doses of 5 mg Ramipril.; type: ADME, organism-based; settings: in vivo, dose 5 to 10 mg, dosed compound id 51, dosed compound name RAMIPRIL, regimen Multiple dose, tissue Plasma

Row | F (Homo sapiens [1]; tissue Plasma) [%] | Excretion (Homo sapiens [1]; tissue Feces) [%] | Absorption (Homo sapiens [1]; tissue Plasma) [%] | Tmax (Homo sapiens [1]; tissue Plasma) [h] | Excretion (Homo sapiens [1]; tissue Urine) [%] | t1/2 (Homo sapiens [2]) [h] | SMILES
1 | 28 | 40 | 50 to 60 | 1 | 60 | – | CCOC(=O)[C@H](CCc1ccccc1)N[C@@H](C)C(=O)N1[C@H](C(=O)O)C[C@@H]2CCC[C@@H]21 [RAMIPRIL]
2 | 44 | – | – | 2 to 4 | – | 13 to 17 | C[C@H](N[C@@H](CCc1ccccc1)C(=O)O)C(=O)N1[C@H](C(=O)O)C[C@@H]2CCC[C@@H]21 [RAMIPRILAT]
